Measured values taken from article PMC5823845 (Bioorganic & Medicinal Chemistry, 2018).

Test system: not listed separately
Test: PK studies in rats
Assay type: in vivo, Sprague-Dawley rats
Settings: 10 mg/kg po, 8% Ethanol/92% PEG-400, n = 4
Protocol: The Test Items were orally administered at a dose of 10 mg/kg and a dosing volume of 10 mL/kg. […] The Test Items were intravenously administered at a dose of 0.5 mg/kg and a dosing volume of 2 mL/kg. […] Whole blood concentrations of the Test Items were measured using LC-MS/MS and selected pharmacokinetic parameters calculated using Pharsight WinNonLin software. For furthers details see Supplementary data file.

Compound | rat pK AUC po
O=C(O)c1ccc(NC(=O)c2cc(Cl)c(OC3CCCC3)c(Cl)c2)cc1 [Compound 15, 4-(3,5-Dichloro-4-(cyclopentyloxy)benzamido)benzoic acid] | 1674 ng·min mL^−1
CCOc1c(Cl)cc(C(=O)Nc2ccc(C(=O)O)c(C)c2)cc1Cl [Compound 18, 4-(3,5-Dichloro-4-ethoxybenzamido)-2-methylbenzoic acid] | 74,396 ng·min mL^−1
COc1c(Cl)cc(C(=O)Nc2ccc(C(=O)O)c(F)c2)cc1OC(C)C [Compound 53] | 10,871 ng·min mL^−1
CCOc1c(Cl)cc(C(=O)Nc2ccc(C(=O)O)c(F)c2)cc1OC(C)C [Compound 54] | 15,376 ng·min mL^−1
Cc1cc(NC(=O)c2cc(Cl)c(OC(C)C)c(OC(C)C)c2)ccc1C(=O)O [Compound 44] | 77,670 ng·min mL^−1

Same assay, conditions: iv 0.5 mg/kg, n = 4

Compound | rat pK Cl [mL/kg/min]
O=C(O)c1ccc(NC(=O)c2cc(Cl)c(OC3CCCC3)c(Cl)c2)cc1 [Compound 15, 4-(3,5-Dichloro-4-(cyclopentyloxy)benzamido)benzoic acid] | 2
CCOc1c(Cl)cc(C(=O)Nc2ccc(C(=O)O)c(C)c2)cc1Cl [Compound 18, 4-(3,5-Dichloro-4-ethoxybenzamido)-2-methylbenzoic acid] | 1.6
COc1c(Cl)cc(C(=O)Nc2ccc(C(=O)O)c(F)c2)cc1OC(C)C [Compound 53] | 15
CCOc1c(Cl)cc(C(=O)Nc2ccc(C(=O)O)c(F)c2)cc1OC(C)C [Compound 54] | 12
Cc1cc(NC(=O)c2cc(Cl)c(OC(C)C)c(OC(C)C)c2)ccc1C(=O)O [Compound 44] | 5.4

Same assay, conditions: male, Sprague-Dawley, whole blood; rat, 10 mg/kg po vs 0.5 mg/kg iv, n = 4; read-out: rat pK F%

Compound | bioavailability [%]
O=C(O)c1ccc(NC(=O)c2cc(Cl)c(OC3CCCC3)c(Cl)c2)cc1 [Compound 15, 4-(3,5-Dichloro-4-(cyclopentyloxy)benzamido)benzoic acid] | 0.3
CCOc1c(Cl)cc(C(=O)Nc2ccc(C(=O)O)c(C)c2)cc1Cl [Compound 18, 4-(3,5-Dichloro-4-ethoxybenzamido)-2-methylbenzoic acid] | 12
COc1c(Cl)cc(C(=O)Nc2ccc(C(=O)O)c(F)c2)cc1OC(C)C [Compound 53] | 15
CCOc1c(Cl)cc(C(=O)Nc2ccc(C(=O)O)c(F)c2)cc1OC(C)C [Compound 54] | 12
Cc1cc(NC(=O)c2cc(Cl)c(OC(C)C)c(OC(C)C)c2)ccc1C(=O)O [Compound 44] | 66

Target: T1, mouse RAR alpha receptor (Mus musculus, UniProt P11416)
T1 sequence (P11416 183-417 limits assumed): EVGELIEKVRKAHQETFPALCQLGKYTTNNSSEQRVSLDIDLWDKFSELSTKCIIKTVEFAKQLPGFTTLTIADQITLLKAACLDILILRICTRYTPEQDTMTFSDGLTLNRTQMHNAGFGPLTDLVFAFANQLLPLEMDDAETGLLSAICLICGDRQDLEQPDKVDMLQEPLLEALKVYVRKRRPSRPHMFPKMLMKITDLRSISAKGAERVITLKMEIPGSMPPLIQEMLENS
Test: not given
Settings: relative to the amplitude of the normalizing ATRA output

Compound | RARα agonist type (partial / full agonist)
CC(C)Oc1cc(C(=O)Nc2ccc(C(=O)O)cc2)cc(OC(C)C)c1OC(C)C [Compound 33] | partial agonist activity
CCOc1cc(C(=O)Nc2ccc(C(=O)O)cc2)cc(OC(C)C)c1OCC [Compound 34] | full RARα agonist
CCOc1c(OC2CCCC2)cc(C(=O)Nc2ccc(C(=O)O)cc2)cc1OC1CCCC1 [Compound 32] | partial agonist activity

Target: T2, mouse RAR beta receptor (Mus musculus, UniProt P22605)
T2 sequence (P22605 210-444 limits assumed): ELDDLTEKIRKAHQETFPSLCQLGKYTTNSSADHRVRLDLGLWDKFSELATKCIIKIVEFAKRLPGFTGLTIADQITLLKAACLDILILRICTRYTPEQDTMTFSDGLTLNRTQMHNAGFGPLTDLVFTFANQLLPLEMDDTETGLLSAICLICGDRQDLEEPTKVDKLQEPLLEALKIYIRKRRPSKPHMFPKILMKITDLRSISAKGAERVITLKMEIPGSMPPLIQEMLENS
Test: not given
Settings: ratio of relative EC50s RARβ/RARα

Compound | β/α ratio
CCOc1c(Cl)cc(C(=O)Nc2ccc(C(=O)O)c(C(F)(F)F)c2)cc1Cl [Compound 21] | 1.5
CCOc1c(Cl)cc(C(=O)Nc2ccc(C(=O)O)c(O)c2)cc1Cl [Compound 19, 4-(3,5-Dichloro-4-ethoxybenzamido)-2-hydroxybenzoic acid] | 37
CC1(C)CCC(C)(C)c2c1cc(C(=O)Nc1cc(F)c(C(=O)O)c(F)c1)c(O)c2Cl [Compound 4, reference compound] | 141
CCCOc1c(Cl)cc(C(=O)Nc2ccc(C(=O)O)cc2)cc1Cl [Compound 12] | 9.5
COc1c(Cl)cc(C(=O)Nc2ccc(C(=O)O)c(F)c2)cc1OC(C)C [Compound 53] | 609
CCOc1c(Cl)cc(C(=O)Nc2ccc(C(=O)O)c(C)c2)cc1OC [Compound 58] | 210
O=C(O)c1ccc(NC(=O)c2cc(Cl)c(O)c(Cl)c2)cc1 [Compound 60] | 7
CCOc1cc(C(=O)Nc2ccc(C(=O)O)c(C)c2)cc(Cl)c1OC(C)C [Compound 57] | 286
CCOc1c(Cl)cc(C(=O)Nc2ccc(C(=O)O)c(F)c2)cc1OC(C)C [Compound 54] | 487
CC(C)Oc1cc(C(=O)Nc2ccc(C(=O)O)cc2)cc(OC(C)C)c1OC(C)C [Compound 33] | 96
CCOc1cc(C(=O)Nc2ccc(C(=O)O)cc2)cc(OC(C)C)c1OCC [Compound 34] | 84
Cc1cc(NC(=O)c2cc(Cl)c(OC(C)C)c(OC(C)C)c2)ccc1C(=O)O [Compound 44] | 45
CCOc1c(OC2CCCC2)cc(C(=O)Nc2ccc(C(=O)O)cc2)cc1OC1CCCC1 [Compound 32] | 145

Test system: not listed separately
Test: Log D pH 7.4, octanol/buffer shake flask method
Settings: not given

Compound | logD
O=C(O)c1ccc(NC(=O)c2cc(Cl)c(OC3CCCC3)c(Cl)c2)cc1 [Compound 15, 4-(3,5-Dichloro-4-(cyclopentyloxy)benzamido)benzoic acid] | 2.8
CCOc1c(Cl)cc(C(=O)Nc2ccc(C(=O)O)c(C)c2)cc1Cl [Compound 18, 4-(3,5-Dichloro-4-ethoxybenzamido)-2-methylbenzoic acid] | 1.7
COc1c(Cl)cc(C(=O)Nc2ccc(C(=O)O)c(F)c2)cc1OC(C)C [Compound 53] | 1
CCOc1cc(C(=O)Nc2ccc(C(=O)O)c(C)c2)cc(Cl)c1OC(C)C [Compound 57] | 1.9
CCOc1c(Cl)cc(C(=O)Nc2ccc(C(=O)O)c(F)c2)cc1OC(C)C [Compound 54] | 1.4
Cc1cc(NC(=O)c2cc(Cl)c(OC(C)C)c(OC(C)C)c2)ccc1C(=O)O [Compound 44] | 2.3

Test system: not listed separately
Test: Intrinsic clearance in liver microsomes
Assay type: in vitro ADME
Settings: liver microsomes; human microsomes, 37 °C, NADPH, 45 min; mean of 5
Protocol: The reaction is terminated by the addition of methanol. Following centrifugation, the supernatant is analyzed on the LC-MS/MS. […] The data is the mean on 5 separate experiments.
The ln peak area ratio (compound peak area/internal standard peak area) is plotted against time and the gradient of the line determined.
(see Supplementary data file for details).

Compound | microsomal CLint [µL/min/mg]
O=C(O)c1ccc(NC(=O)c2cc(Cl)c(OC3CCCC3)c(Cl)c2)cc1 [Compound 15, 4-(3,5-Dichloro-4-(cyclopentyloxy)benzamido)benzoic acid] | 26
CCOc1c(Cl)cc(C(=O)Nc2ccc(C(=O)O)c(C)c2)cc1Cl [Compound 18, 4-(3,5-Dichloro-4-ethoxybenzamido)-2-methylbenzoic acid] | 14
COc1c(Cl)cc(C(=O)Nc2ccc(C(=O)O)c(F)c2)cc1OC(C)C [Compound 53] | 0.3
CCOc1cc(C(=O)Nc2ccc(C(=O)O)c(C)c2)cc(Cl)c1OC(C)C [Compound 57] | 8.7
CCOc1c(Cl)cc(C(=O)Nc2ccc(C(=O)O)c(F)c2)cc1OC(C)C [Compound 54] | 3.3
Cc1cc(NC(=O)c2cc(Cl)c(OC(C)C)c(OC(C)C)c2)ccc1C(=O)O [Compound 44] | 15

Same assay, conditions: liver microsomes; mouse microsomes, 37 °C, NADPH, 45 min; mean of 5

Compound | microsomal CLint [µL/min/mg]
O=C(O)c1ccc(NC(=O)c2cc(Cl)c(OC3CCCC3)c(Cl)c2)cc1 [Compound 15, 4-(3,5-Dichloro-4-(cyclopentyloxy)benzamido)benzoic acid] | 83
CCOc1c(Cl)cc(C(=O)Nc2ccc(C(=O)O)c(C)c2)cc1Cl [Compound 18, 4-(3,5-Dichloro-4-ethoxybenzamido)-2-methylbenzoic acid] | 38
COc1c(Cl)cc(C(=O)Nc2ccc(C(=O)O)c(F)c2)cc1OC(C)C [Compound 53] | 11
CCOc1c(Cl)cc(C(=O)Nc2ccc(C(=O)O)c(C)c2)cc1OC [Compound 58] | 18.4
CCOc1cc(C(=O)Nc2ccc(C(=O)O)c(C)c2)cc(Cl)c1OC(C)C [Compound 57] | 25.7
CCOc1c(Cl)cc(C(=O)Nc2ccc(C(=O)O)c(F)c2)cc1OC(C)C [Compound 54] | 17.9
Cc1cc(NC(=O)c2cc(Cl)c(OC(C)C)c(OC(C)C)c2)ccc1C(=O)O [Compound 44] | 26.2

Target: T3, mouse RAR gamma receptor (Mus musculus, UniProt P18911)
T3 sequence (P18911 185-419 limits assumed): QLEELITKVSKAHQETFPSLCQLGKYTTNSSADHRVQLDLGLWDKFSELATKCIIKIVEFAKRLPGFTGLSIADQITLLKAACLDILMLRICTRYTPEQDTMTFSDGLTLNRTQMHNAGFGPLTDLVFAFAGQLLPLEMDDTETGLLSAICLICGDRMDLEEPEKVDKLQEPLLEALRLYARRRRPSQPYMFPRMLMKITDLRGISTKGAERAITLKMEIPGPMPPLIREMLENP
Test: not given
Settings: not given

Compound | γ/α ratio
CC1(C)CCC(C)(C)c2c1cc(C(=O)Nc1cc(F)c(C(=O)O)c(F)c1)c(O)c2Cl [Compound 4, reference compound] | 867

Same assay, conditions: mouse; ratio of relative EC50s RARγ/RARα

Compound | γ/α ratio
CCOc1c(Cl)cc(C(=O)Nc2ccc(C(=O)O)c(C(F)(F)F)c2)cc1Cl [Compound 21] | 11
CCOc1c(Cl)cc(C(=O)Nc2ccc(C(=O)O)c(O)c2)cc1Cl [Compound 19, 4-(3,5-Dichloro-4-ethoxybenzamido)-2-hydroxybenzoic acid] | 149
CCCOc1c(Cl)cc(C(=O)Nc2ccc(C(=O)O)cc2)cc1Cl [Compound 12] | 82
COc1c(Cl)cc(C(=O)Nc2ccc(C(=O)O)c(F)c2)cc1OC(C)C [Compound 53] | 17,600
CCOc1c(Cl)cc(C(=O)Nc2ccc(C(=O)O)c(C)c2)cc1OC [Compound 58] | >250
O=C(O)c1ccc(NC(=O)c2cc(Cl)c(O)c(Cl)c2)cc1 [Compound 60] | 55
CCOc1cc(C(=O)Nc2ccc(C(=O)O)c(C)c2)cc(Cl)c1OC(C)C [Compound 57] | 1675
CCOc1c(Cl)cc(C(=O)Nc2ccc(C(=O)O)c(F)c2)cc1OC(C)C [Compound 54] | 6169
CC(C)Oc1cc(C(=O)Nc2ccc(C(=O)O)cc2)cc(OC(C)C)c1OC(C)C [Compound 33] | 8
CCOc1cc(C(=O)Nc2ccc(C(=O)O)cc2)cc(OC(C)C)c1OCC [Compound 34] | 34
Cc1cc(NC(=O)c2cc(Cl)c(OC(C)C)c(OC(C)C)c2)ccc1C(=O)O [Compound 44] | 2947
CCOc1c(OC2CCCC2)cc(C(=O)Nc2ccc(C(=O)O)cc2)cc1OC1CCCC1 [Compound 32] | 19
